From PubChem BioAssay AID248 (DTP/NCI, 2004)
Inconclusive results and toxic doses are left out.

Test system: L1210 leukemia ip in BDF1 mice, survival T/C
Experiment: NCI In Vivo Anticancer Drug Screen. Data for tumor model L1210 Leukemia (intraperitoneal) in B6D2F1 (BDF1) mice
Settings: endpoint: mean survival time, higher = longer survival
Method in brief: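 Ratio derived from survival: compound-dosed mice over vehicle-dosed mice, all bearing a transplantable tumor.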

[1] = dose: 100.0 mg/kg/injection, schedule: Q01DX009 (ip), vehicle: Klucel (hydroxypropylcellulose) (HPC)
[2] = dose: 200.0 mg/kg/injection, schedule: Q01DX009 (ip), vehicle: Klucel (hydroxypropylcellulose) (HPC)
[3] = dose: 200.0 mg/kg/injection, schedule: Q01DX009 (ip), vehicle: saline with Tween-80

For `N#Cc1c(N)ncc2c1CCCC2`, the T/C (dose: 50.0 mg/kg/injection, schedule: Q01DX009 (ip), vehicle: Klucel (hydroxypropylcellulose) (HPC)) was 102 % of control, the T/C [1] was 98 % of control and the T/C [2] was 105 % of control.

For `NNc1ccccc1Br`, the T/C (dose: 100.0 mg/kg/injection, schedule: Q04DX003 (ip), vehicle: saline) was 101 % of control and the T/C (dose: 200.0 mg/kg/injection, schedule: Q04DX003 (ip), vehicle: saline) was 102 % of control.

With `C(=N/N(Cc1ccccc1)Cc1ccccc1)/c1ccccc1` the T/C (dose: 100.0 mg/kg/injection, schedule: Q01DX001 (ip), vehicle: saline) was 94 % of control, the T/C (dose: 200.0 mg/kg/injection, schedule: Q01DX001 (ip), vehicle: saline) was 103 % of control and the T/C (dose: 400.0 mg/kg/injection, schedule: Q01DX001 (ip), vehicle: saline) was 101 % of control.

With `CC(=O)NC1CCCCC1CC1CCCCC1` (stereo not drawn) the T/C (dose: 75.0 mg/kg/injection, schedule: Q01DX009 (ip), vehicle: Klucel (hydroxypropylcellulose) (HPC)) was 103 % of control, the T/C (dose: 100.0 mg/kg/injection, schedule: Q04DX003 (ip), vehicle: Klucel (hydroxypropylcellulose) (HPC)) was 102 % of control and the T/C (dose: 150.0 mg/kg/injection, schedule: Q01DX009 (ip), vehicle: Klucel (hydroxypropylcellulose) (HPC)) was 93 % of control. The T/C (dose: 200.0 mg/kg/injection, schedule: Q04DX003 (ip), vehicle: Klucel (hydroxypropylcellulose) (HPC)) was 98 % of control, the T/C (dose: 300.0 mg/kg/injection, schedule: Q01DX009 (ip), vehicle: Klucel (hydroxypropylcellulose) (HPC)) was 96 % of control and the T/C (dose: 400.0 mg/kg/injection, schedule: Q04DX003 (ip), vehicle: Klucel (hydroxypropylcellulose) (HPC)) was 98 % of control.

In the case of `CC(C)(CO)NC(=O)COc1ccc(Cl)cc1Cl`, the T/C (dose: 100.0 mg/kg/injection, schedule: Q04DX002 (ip), vehicle: saline with Tween-80) is reported as 102 % of control, the T/C (dose: 200.0 mg/kg/injection, schedule: Q04DX002 (ip), vehicle: saline with Tween-80) is reported as 94 % of control and the T/C (dose: 400.0 mg/kg/injection, schedule: Q04DX002 (ip), vehicle: saline with Tween-80) is reported as 94 % of control.

In the case of `CCCN(C)N=Nc1ccccc1C(N)=O`, the T/C (dose: 44.0 mg/kg/injection, schedule: Q01DX009 (ip), vehicle: saline with Tween-80) is reported as 108 % of control, the T/C (dose: 50.0 mg/kg/injection, schedule: Q01DX009 (ip), vehicle: saline with Tween-80) is reported as 113 % of control and the T/C (dose: 50.0 mg/kg/injection, schedule: Q04DX003 (ip), vehicle: saline with Tween-80) is reported as 110 % of control. The T/C (dose: 66.0 mg/kg/injection, schedule: Q01DX009 (ip), vehicle: saline with Tween-80) was 108 % of control, the T/C (dose: 100.0 mg/kg/injection, schedule: Q01DX001 (ip), vehicle: other) was 109 % of control and the T/C (dose: 100.0 mg/kg/injection, schedule: Q04DX003 (ip), vehicle: saline with Tween-80) was 111 % of control. The T/C (dose: 150.0 mg/kg/injection, schedule: Q01DX009 (ip), vehicle: saline with Tween-80) was 153 % of control, the T/C (dose: 200.0 mg/kg/injection, schedule: Q01DX001 (ip), vehicle: other) was 113 % of control and the T/C [3] was 120 % of control. The T/C (dose: 200.0 mg/kg/injection, schedule: Q04DX003 (ip), vehicle: saline with Tween-80) was 118 % of control.

`O=C(/C=C(/c1ccccc1)P(=O)(c1ccccc1)c1ccccc1)c1ccccc1` was tested, and the T/C (dose: 100.0 mg/kg/injection, schedule: Q01DX009 (ip), vehicle: saline with Tween-80) was 86 % of control, the T/C [3] was 89 % of control and the T/C (dose: 400.0 mg/kg/injection, schedule: Q01DX009 (ip), vehicle: saline with Tween-80) was 88 % of control.

For `CC(=O)CC1CCC(CC(C)=O)CC1` (stereo not drawn), the T/C (dose: 100.0 mg/kg/injection, schedule: Q04DX002 (ip), vehicle: other) was 98 % of control, the T/C (dose: 200.0 mg/kg/injection, schedule: Q04DX002 (ip), vehicle: other) was 90 % of control and the T/C (dose: 400.0 mg/kg/injection, schedule: Q04DX002 (ip), vehicle: other) was 98 % of control.

In the case of `CCN(CC)c1ccc(N=Nc2cc(Cl)ccc2Cl)c(NC(=O)CSC(C)=O)c1`, the T/C [1] is reported as 110 % of control, the T/C [2] is reported as 101 % of control and the T/C (dose: 400.0 mg/kg/injection, schedule: Q01DX009 (ip), vehicle: Klucel (hydroxypropylcellulose) (HPC)) is reported as 97 % of control.

For `CCOC(=O)C1CCC/C1=N\N=C(N)N` (stereo not drawn) (tested in a mixture with another compound), the T/C (dose: 15.0 mg/kg/injection, schedule: Q01DX Z (ip), vehicle: methylcellulose (MC)) was 95 % of control, the T/C (dose: 30.0 mg/kg/injection, schedule: Q01DX Z (ip), vehicle: methylcellulose (MC)) was 102 % of control and the T/C (dose: 60.0 mg/kg/injection, schedule: Q01DX Z (ip), vehicle: methylcellulose (MC)) was 104 % of control. The T/C (dose: 60.0 mg/kg/injection, schedule: Q01DX Z (oral), vehicle: methylcellulose (MC)) was 86 % of control, the T/C (dose: 120.0 mg/kg/injection, schedule: Q01DX Z (ip), vehicle: methylcellulose (MC)) was 97 % of control and the T/C (dose: 120.0 mg/kg/injection, schedule: Q01DX Z (oral), vehicle: methylcellulose (MC)) was 94 % of control. The T/C (dose: 240.0 mg/kg/injection, schedule: Q01DX Z (oral), vehicle: methylcellulose (MC)) was 92 % of control.
